Read-outs that look alike come from different tables or passages of the source.
Key:
Test in all cases: MTT cell proliferation assay
Assay type in all cases: cell-based
[1] = system: 3T3 cells; details: Mus musculus, NIH3T3, approximately 64-72 hours incubation
Method in brief: (§1)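 5,000-10,000 cells/well, overnight attach; 8 conc., 1 nM–30 μM; MTT ~4 h; formazan solubilized, OD 490 nm; % inhibition = (1−(ODo/OD))×100 vs neg. control; mostly duplicate, mean±SE.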

[2] = system: Z138 cells; details: Homo sapiens, Z-138, Z138 cells, approximately 64-72 hours incubation
Method in brief: as §1

[3] = system: MS751 cells; details: Homo sapiens, MS751, MS751 cells, approximately 64-72 hours incubation
Method in brief: as §1

[4] = read-out: MTT Assay IC50 MS-751
[5] = read-out: MTT Assay IC50, Z-138
[6] = read-out: MTT Assay IC50, MS-751

Work on `CC1(C)COCCN1C(=O)c1ccc(-c2cc(C(F)(F)F)c3oc(CNC(=O)/C=C/c4ccc(N)nc4)cc3c2)nc1` [Compound 569, (E)-3-(6-aminopyridin-3-yl)-N-((5-(5-(3,3-dimethylmorpholine-4-carbonyl)pyridin-2-yl)-7-(trifluoromethyl)benzofuran-2-yl)methyl)acrylamide] yielded an IC50 ([1]; read-out: MTT Assay IC50 3T3) of over 10 µM, an IC50 ([2]; read-out: MTT Assay IC50 Z-138) of under 0.1 µM and an IC50 [3, 4] of under 0.1 µM.
Work on `Nc1ccc(/C=C/C(=O)NCc2cc3cc(-c4ccc(C(=O)N5CCCCC5)cc4)cc(C(F)(F)F)c3o2)cn1` [Compound 595, (E)-3-(6-aminopyridin-3-yl)-N-((5-(4-(piperidine-1-carbonyl)phenyl)-7-(trifluoromethyl)benzofuran-2-yl)methyl)acrylamide] yielded an IC50 ([1]; read-out: MTT Assay IC50 3T3) of over 10 µM, an IC50 ([2]; read-out: MTT Assay IC50 Z-138) of 0.1 to 5 µM and an IC50 [3, 4] of 0.1 to 5 µM.
For `CN1CCN(C(=O)c2cnc(-c3cc(Cl)c4oc(CNC(=O)/C=C/c5ccc(N)nc5)cc4c3)nc2)CC1` [Compound 586], the IC50 ([1]; read-out: MTT Assay IC50 3T3) was over 10 µM, the IC50 ([2]; read-out: MTT Assay IC50 Z-138) was 0.1 to 5 µM and the IC50 [3, 4] was 0.1 to 5 µM.
Work on `O=C(/C=C/c1ccncc1)NCc1cc2cc(-c3ccc(C(=O)N4CCOCC4)cc3)cc(Cl)c2o1` [Compound 535, (E)-N-((7-Chloro-5-(4-(morpholine-4-carbonyl)phenyl)benzofuran-2-yl)methyl)-3-(pyridin-4-yl)acrylamide] yielded an IC50 ([1]; read-out: MTT Assay IC50 3T3) of over 10 µM, an IC50 ([2]; read-out: MTT Assay IC50 Z-138) of over 10 µM and an IC50 [3, 4] of over 10 µM.
For `O=C(/C=C/c1cccnc1)NCc1cc2cc(-c3ccc(S(=O)(=O)N4CCC(F)(F)CC4)cc3)cc(C(F)(F)F)c2o1` [Compound 680, (E)-N-((5-(4-((4,4-difluoropiperidin-1-yl)sulfonyl)phenyl)-7-(trifluoromethyl)benzofuran-2-yl)methyl)-3-(pyridin-3-yl)acrylamide], the IC50 ([1]; read-out: MTT Assay IC50, 3T3) was over 10 µM, the IC50 [2, 5] was 0.1 to 5 µM and the IC50 [3, 6] was 0.1 to 5 µM.
Work on `CC1(F)CN(C(=O)c2ccc(-c3cc(Cl)c4oc(CNC(=O)/C=C/c5ccc(N)nc5)cc4c3)cc2)C1` [Compound 599, (E)-3-(6-aminopyridin-3-yl)-N-((7-chloro-5-(4-(3-fluoro-3-methylazetidine-1-carbonyl)phenyl)benzofuran-2-yl)methyl)acrylamide] yielded an IC50 ([1]; read-out: MTT Assay IC50 3T3) of 5 to 10 µM, an IC50 ([2]; read-out: MTT Assay IC50 Z-138) of 0.1 to 5 µM and an IC50 [3, 4] of 0.1 to 5 µM.
`Nc1ccc(/C=C/C(=O)NCc2cc3cc(-c4ccc(C(=O)C(=O)N5CCOCC5)cc4)cc(Cl)c3o2)cn1` [Compound 545, (E)-3-(6-Aminopyridin-3-yl)-N-((7-chloro-5-(4-(2-morpholino-2-oxoacetyl)phenyl)benzofuran-2-yl)methyl)acrylamide] was tested, and the IC50 ([1]; read-out: MTT Assay IC50 3T3) was 5 to 10 µM, the IC50 ([2]; read-out: MTT Assay IC50 Z-138) was 0.1 to 5 µM and the IC50 [3, 4] was 0.1 to 5 µM.
For `Nc1ccc(/C=C/C(=O)NCc2cc3c(C(F)(F)F)cc(-c4ccc(C(=O)N5CCC(F)(F)CC5)cn4)cc3o2)cn1` [Compound 762, (E)-3-(6-aminopyridin-3-yl)-N-((6-(5-(4,4-difluoropiperidine-1-carbonyl)pyridin-2-yl)-4-(trifluoromethyl)benzofuran-2-yl)methyl)acrylamide], the IC50 ([1]; read-out: MTT Assay IC50, 3T3) was over 10 µM, the IC50 [2, 5] was 0.1 to 5 µM and the IC50 [3, 6] was 5 to 10 µM.
Molecule `Nc1ccc(/C=C/C(=O)NCc2cc3cc(-c4ccc(C(=O)N5CCC(F)(F)CC5)cc4)cc(-c4cccc(Cl)c4)c3o2)cn1` [Compound 741, (E)-3-(6-aminopyridin-3-yl)-N-((7-(3-chlorophenyl)-5-(4-(4,4-difluoropiperidine-1-carbonyl)phenyl)benzofuran-2-yl)methyl)acrylamide] has an IC50 ([1]; read-out: MTT Assay IC50, 3T3) of 0.1 to 5 µM, an IC50 [2, 5] of under 0.1 µM and an IC50 [3, 6] of under 0.1 µM.
With `O=C(/C=C/c1ccccn1)NCc1cc2cc(-c3ccc(C(=O)N4CCOCC4)cc3)cc(Cl)c2o1` [Compound 539, (E)-N-((7-chloro-5-(4-(morpholine-4-carbonyl)phenyl)benzofuran-2-yl)methyl)-3-(pyridin-2-yl)acrylamide] the IC50 ([1]; read-out: MTT Assay IC50 3T3) was over 10 µM, the IC50 ([2]; read-out: MTT Assay IC50 Z-138) was 0.1 to 5 µM and the IC50 [3, 4] was 0.1 to 5 µM.
For `CC1(F)CCN(C(=O)c2ccc(-c3cc(C(F)(F)F)c4oc(CNC(=O)/C=C/c5ccc(N)nc5)cc4c3)cc2)C1` (stereo not drawn) [Compound 608, (E)-3-(6-aminopyridin-3-yl)-N-((5-(4-(3-fluoro-3-methylpyrrolidine-1-carbonyl)phenyl)-7-(trifluoromethyl)benzofuran-2-yl)methyl)acrylamide], the IC50 ([1]; read-out: MTT Assay IC50 3T3) was over 10 µM, the IC50 ([2]; read-out: MTT Assay IC50 Z-138) was 0.1 to 5 µM and the IC50 [3, 4] was 0.1 to 5 µM.
Work on `CC(C)(C)c1cc(-c2ccc(C(=O)N3CCOCC3)cc2)cc2cc(CNC(=O)/C=C/c3ccc(N)nc3)oc12` [Compound 511, (E)-3-(6-aminopyridin-3-yl)-N-((7-tert-butyl-5-(4-(morpholine-4-carbonyl)phenyl)benzofuran-2-yl)methyl)acrylamide] yielded an IC50 ([1]; read-out: MTT Assay IC50 3T3) of over 10 µM, an IC50 ([2]; read-out: MTT Assay IC50 Z-138) of 0.1 to 5 µM and an IC50 [3, 4] of 0.1 to 5 µM.
Molecule `Nc1ccc(/C=C/C(=O)NCc2cc3cc(-c4ccc(C(=O)N5CCC(C(F)(F)F)CC5)cc4)cc(C(F)(F)F)c3o2)cn1` [Compound 605, (E)-3-(6-aminopyridin-3-yl)-N-((7-(trifluoromethyl)-5-(4-(4-(trifluoromethyl)piperidine-1-carbonyl)phenyl)benzofuran-2-yl)methyl)acrylamide] has an IC50 ([1]; read-out: MTT Assay IC50 3T3) of over 10 µM, an IC50 ([2]; read-out: MTT Assay IC50 Z-138) of 0.1 to 5 µM and an IC50 [3, 4] of 0.1 to 5 µM.
`Nc1ccc(/C=C/C(=O)NCc2cc3cc(-c4cnc(C(=O)N5CCOCC5)c(F)c4)cc(Cl)c3o2)cn1` [Compound 544, (E)-3-(6-aminopyridin-3-yl)-N-((7-chloro-5-(5-fluoro-6-(morpholine-4-carbonyl)pyridin-3-yl)benzofuran-2-yl)methyl)acrylamide] showed an IC50 ([1]; read-out: MTT Assay IC50 3T3) of over 10 µM, an IC50 ([2]; read-out: MTT Assay IC50 Z-138) of 0.1 to 5 µM and an IC50 [3, 4] of 0.1 to 5 µM.
`Nc1ccc(/C=C/C(=O)NCc2cc3cc(-c4ccc(C(=O)N5CCC(F)(F)CC5)cn4)cc(C(F)(F)F)c3o2)cc1F` [Compound 676, (E)-3-(4-amino-3-fluorophenyl)-N-((5-(5-(4,4-difluoropiperidine-1-carbonyl)pyridin-2-yl)-7-(trifluoromethyl)benzofuran-2-yl)methyl)acrylamide] was tested, and the IC50 ([1]; read-out: MTT Assay IC50, 3T3) was over 10 µM, the IC50 [2, 5] was over 10 µM and the IC50 [3, 6] was over 10 µM.
`Nc1ccc(/C=C/C(=O)NCc2coc3c(Cl)cc(-c4ccc(C(=O)N5CCC(F)(F)CC5)cn4)cc23)cn1` [Compound 766, (E)-3-(6-aminopyridin-3-yl)-N-((7-chloro-5-(5-(4,4-difluoropiperidine-1-carbonyl)pyridin-2-yl)benzofuran-3-yl)methyl)acrylamide] gave an IC50 ([1]; read-out: MTT Assay IC50, 3T3) of 5 to 10 µM, an IC50 [2, 5] of 0.1 to 5 µM and an IC50 [3, 6] of 0.1 to 5 µM.
With `Cc1noc(C)c1-c1cc(-c2ccc(F)cc2)c2oc(CNC(=O)/C=C/c3ccc(N)nc3)cc2c1` [Compound 694, (E)-3-(6-aminopyridin-3-yl)-N-((5-(3,5-dimethylisoxazol-4-yl)-7-(4-fluorophenyl)benzofuran-2-yl)methyl)acrylamide] the IC50 ([1]; read-out: MTT Assay IC50, 3T3) was over 10 µM, the IC50 [2, 5] was under 0.1 µM and the IC50 [3, 6] was 0.1 to 5 µM.
`Nc1ccc(/C=C/C(=O)NCc2cc3cc(-c4ccc(C(=O)N5CCC(F)(F)CC5)cc4F)cc(-c4ccc(Cl)cc4)c3o2)cn1` [Compound 750, (E)-3-(6-aminopyridin-3-yl)-N-((7-(4-chlorophenyl)-5-(4-(4,4-difluoropiperidine-1-carbonyl)-2-fluorophenyl)benzofuran-2-yl)methyl)acrylamide] was tested, and the IC50 ([1]; read-out: MTT Assay IC50, 3T3) was over 10 µM, the IC50 [2, 5] was 0.1 to 5 µM and the IC50 [3, 6] was 0.1 to 5 µM.
For `Nc1ccc(/C=C/C(=O)NCc2cc3cc(-c4ccc(F)c(C(=O)N5CCOCC5)c4)cc(C(F)(F)F)c3o2)cn1` [Compound 563, (E)-3-(6-aminopyridin-3-yl)-N-((5-(4-fluoro-3-(morpholine-4-carbonyl)phenyl)-7-(trifluoromethyl)benzofuran-2-yl)methyl)acrylamide], the IC50 ([1]; read-out: MTT Assay IC50 3T3) was over 10 µM, the IC50 ([2]; read-out: MTT Assay IC50 Z-138) was under 0.1 µM and the IC50 [3, 4] was 0.1 to 5 µM.

Reference: patent publication US12331040B2 (Karyopharm Therapeutics Inc., priority 2013, dated 2025)
